Common to all, as to type: cell-based, human
Assay [1] concerns HUVEC cells. The assay is described as follows: WST-1 proliferation assay of HUVEC cells. The settings on record: 1, 2 and 5 μM; all 3 HUVEC cell cultures; p<0.001 (t-test); FIG. 1A.
Experimental: All experiments were additionally run in several replicates (one HUVEC in different passages as well as different preparations.
For determining the proliferation rates, WST-1 tests were performed. Essentially, 1000 HUVEC cells/well were seeded in a 96-well plate and exposed to the indicated concentrations of 4-OHT (also denoted by lab code CR 1447) for 5 days. Inhibition of proliferation was quantified by measuring the enzymatic cleavage of the tetrazolium salt WST-1 to formazan by cellular mitochondrial dehydrogenases as a readout for cell viability, wherein cell viability of treated cells is expressed as the percentage (%) of untreated controls containing only the solvent in appropriate concentrations.
Cells were grown and subcultured in Endothelial Cell Growth medium (EGM) for 3 and 5 days, respectively.
Assay [2] relates to HUVEC cells. The assay can be described thus: Wound healing (scratch) assay of HUVEC cells. The settings on record: 10 μM, FIG. 3. As to the method: (§1) Briefly, human umbilical vein endothelial cells (in the following HUVEC) were freshly isolated out of human umbilical cords by methods known in the art and were used in the experiments from passage p4 up to passage p10 to prevent any artefacts originating from in vitro changes of the cells.
(§2) In all experiments, the C-19 steroid compound 4-OHT was added to the cells in the indicated concentration in EGM-2 medium (Lonza) in order to avoid any artefacts originating from exogenous factors contained in the medium.
Another method for studying cell migration is the wound healing (scratch) assay. This assay resembles the events occurring in an acute wound healing process. By release of factors from the wound area endothelial cells migrate into the scratch area, which shall resemble the process of healing and closure of the wound by vascularization and later scar formation.
In summary, HUVEC cells were seeded in a 12-well plate and allow to grow until reaching confluency. Subsequently, a scratch was set, thereby removing the cells within the scratch area. The cells were exposed to 10 μM of 4-OHT and the migration of endothelial cells into the scratch area was monitored microscopically using a schedule from 2 up to 48 hrs, depending on the individual experimental design. […]

Assay [3] concerns HUVEC cells. The assay is described as follows: Tube migration (tube formation) assay of HUVEC cells on matrigel. The settings on record: HUVEC on matrigel (7 mg/ml), 10 μM/L, FIG. 4. As to the method: as §1, §2
After migration into the tissue of a scratch, HUVEC cells change their growth characteristics and form microvessels. This effect can be assessed microscopically.
HUVEC cells were seeded on matrigel (7 mg/ml). Cell suspensions as well as gels containing 10 μM/L 4-OHT were added upon seeding, It was allowed to form branching points during adherence onto this surface mimicking basal membrane character. Tube formation was analyzed microscopically after 12 and 48 hours.
When the human endothelial cells were subjected onto matrigel pads, branching points as one marker of tube formation are inhibited by 4-OHT as compared to untreated controls (red arrows).

Assay [4] has as its system HUVEC cells. The assay can be described thus: Transwell migration assay of HUVEC cells with VEGF as attractant. The settings on record: 48 hrs, VEGF as attractant in lower chamber, compared to control, FIG. 2B. As to the method: as §1, §2
A prerequisite of angiogenesis is the capability of endothelial cells to migrate into the tissue. This process is observed in wound healing and also in the process of tumor growth. Endothelial cells migrate into the tissue along a gradient of factors such as VEGF. This behavior can be studied in an in vitro model of migration using a transwell system, as e.g. apparent from FIG. 2A.
For studying the migration of HUVEC cells using the transwell system with PET-membranes having a 3 μm pore size (24-wells w/o fibronectin-coating), HUVEC cells in different cell numbers were placed in the upper compartment, whereas the attractant was placed in the lower compartment. The number of cells on the attractant site of the membrane was compared with the number of cells visible in a control system (buffer control) and with the attractant (VEGF) in the presence of 4-OHT. […]

Here are results for one molecule from patent US10426785B2, “C-19 steroids for inhibiting neovascularization” (priority 2014, dated 2019).

For `C[C@]12CC[C@H]3[C@@H](CCC4=C(O)C(=O)CC[C@@]43C)[C@@H]1CC[C@@H]2O` [4-OHT, 4-hydroxytestosterone], in the assay on HUVEC cells [1], the “growth inhibition (WST-1 cell viability vs untreated controls)” value was “highly significant”. In addition, the “migration of HUVEC cells into the scratch area compared to untreated control cells” value in the assay with HUVEC cells [2] (after 24 h) was “clear reduction”. Also, the “endothelial cell migration (wound-healing / scratch assay)” value with HUVEC cells [2] (monitored 2 up to 48 hrs) is “effectively inhibited”. Also, the “tube formation of human endothelial cells” value in the assay on HUVEC cells [3] (analyzed after 12 and 48 hours) is “significantly inhibited”. The “branching of the cells (branching points as marker of tube formation)” value in the assay on HUVEC cells [3] (compared to untreated controls) is “markedly inhibited”. For the same molecule, in the assay with HUVEC cells [4], the “migration of cells into the membrane (transwell)” value is on record as “significantly inhibits”.
